In patent US20070281865A1, “MULTI-FUNCTIONAL SPACER FOR GLYCANS” (priority 2006, published 2007):
“Also recorded” adds a separate entry of the source.

Experiments:
[1] = tested on: Human anti-HIV 2G12 monoclonal antibody; test: 2G12 binding on glycan array; details: for binding of 2G12 antibody (in words): glycan array, 2G12 30 μg/mL pre-complexed with goat anti-human-IgG-FITC
Excerpt: Glycan array fabrication.
Glycan Binding Protein binding assay. […] Saliva samples were similarly handled.
Image acquisition and signal processing. […] Data were plotted using MS Excel software.

[2] = tested on: anti-carbohydrate antibodies in sera of metastatic breast cancer patients; test: Sera of metastatic breast cancer patients on glycan array; assay type: binding, Human; details: sera 1:25; 9 MBC patients, 10 healthy
Description: Individual (not pooled) sera were collected from 9 patients who were diagnosed with metastatic breast cancer (MBC). Blood samples were collected before treatment, so that therapeutic intervention would not interfere with patient immune responses. One patient with breast cancer but with good prognosis (IDC, Stage 1) was also included in the study. As control, or “healthy” sera, sera from ten healthy individuals, 5 female and 5 male, with no known malignancies was collected.
(§1) Sera were diluted 1:25 with PBS containing 3% BSA, and placed on the glycan array slide in humidified chamber at room temperature for 90 min. The glycan array slide was then rinsed gently with PBS/0.05% Tween, incubated with biotinylated goat antibody against human IgG, IgM and IgA, rinsed in PBS/0.05% Tween, and incubated with streptavidin-Alexa488 fluorescent dye. Following rinses in PBS/0.05% Tween and H2O, glycan array slides were dried and scanned using the commercial DNA array scanner. […] Signal to background was typically greater 50:1 and no background subtractions were performed. Data were plotted using MS Excel software.

[3] = pKa of deprotected spacer; assay type: physicochemical
Concanavalin A (Con A) = Concanavalin A (Con A) (Canavalia ensiformis, UniProt P02866); details: printing times up to 5 hours
[4] = tested on: antibodies in serum of patients who received porcine fetal pancreas islet-like cell clusters; test: Sera of xenotransplant recipients on glycan array; assay type: binding, Human; details: before and 1, 6, 12 months after transplantation
Description: In 1991-1994, several diabetic (I) patients received transplantation of porcine fetal pancreas islet-like cell clusters (ICC). See, Groth, C. G. et al. Transplantation of porcine fetal pancreas to diabetic patients, The Lancet 344: 1402-4 (1994). The inventor analyzed serum from three of these patients before transplant (t=0), 1 months after (t=1), 6 months after (t=2) and 12 months after (t=3) transplant.
as §1, with “as needed” for “1:25”

Manα1-3Manα1-6(Manα1-2Manα1-3)Manβ1-4GlcNAcβ1-4GlcNAcβSp [Glycan 140]
binding of 2G12 antibody (in words) [1]: did not support binding at all

Neu5Gc(2-6)GalNAc
serum antibodies against glycan in metastatic breast cancer patients versus healthy individuals (in words) [2]: bind

C=CCCONC [Compound 1033]
pKa1 [3]: 4.8

Neu5Acα2-6GalNAcα-
serum antibodies against glycan in metastatic breast cancer patients versus healthy individuals (in words) [2]: significantly higher levels

Gal-beta3-GalNAc-beta4-[Neu5Ac-alpha3]-Gal-beta4-Glc-beta [GM1]
serum antibodies against glycan in metastatic breast cancer patients versus healthy individuals (in words) [2]: bind and higher

Manα1-2Manα1-3(Manα1-2Manα1-6)ManαSp [Glycan 136]
Rel. spec. (Relative binding activity) ([1]; binding of 2G12 to mannose containing glycans in the glycan array): +++ (+++ > 25,000) | binding of 2G12 antibody (in words) [1]: strong binding | variation in maximal binding of con A (Concanavalin A (Con A)): less than 10%

CC(=O)N[C@H]1[C@H](O[C@H]2[C@@H](O)[C@@H](CO)O[C@@H](O[C@H]3[C@H](O)[C@@H](O)C(O)O[C@@H]3CO)[C@@H]2O)O[C@H](CO)[C@@H](O)[C@@H]1O (stereo partly drawn) [LNT-2, GlcNAc-beta3-Gal-beta4-Glc-beta]
serum antibodies against glycan in metastatic breast cancer patients versus healthy individuals (in words) [2]: bind and higher

Manα1-2Manα1-6(Manα1-3)Manα1-6(Manα1-2Manα1-3)Manβ1-4GlcNAcβ1-4GlcNAcβSp [Glycan 144]
binding of 2G12 antibody (in words) [1]: strong preference for binding

Manα1-6(Manα1-3)Manα1-6(Manα1-2Manα1-3)Manβ1-4GlcNAcβ1-4GlcNAcβSp [Glycan 142]
binding of 2G12 antibody (in words) [1]: did not support binding at all

Manα1-2Manα1-2Manα1-3(Manα1-2Manα1-3(Manα1-2Manα1-6)Manα1-6)Manβ1-4GlcNAcβ1-4GlcNAcβSp [Glycan 145]
binding of 2G12 antibody (in words) ([1]; listed as Man9): relatively weakly bound | binding of 2G12 antibody (in words) ([1]; listed as Man-9-N-glycans): smaller level of binding

Manα1-6(Manα1-2Manα1-3)Manα1-6(Manα1-2Manα1-3)Manβ1-4GlcNAcβ1-4GlcNAcβSp [Glycan 143]
binding of 2G12 antibody (in words) [1]: did not support binding at all

Fucose-alpha2-Gal-beta3-GalNAc-beta3-Gal-alpha-4-Gal-beta4-Glc [Globo-H]
serum antibodies against glycan in metastatic breast cancer patients versus healthy individuals (in words) [2]: bind and higher

Galβ1-4(Fucα1-3)GlcNAcβSp [Glycan 65]
serum antibodies against glycan in xenotransplant recipients (in words) [4]: do not have antibodies; also recorded: essentially no anti-LeX antibodies are detected

B1: Glycan 4: Ceruloplasmine mixture of bi and tri- and tetra-antenary N-glycans (protein, UniProt P00450 20-1065, looked up)
Ceruloplasmin: KEKHYYIGIIETTWDYASDHGEKKLISVDTEHSNIYLQNGPDRIGRLYKKALYLQYTDETFRTTIEKPVWLGFLGPIIKAETGDKVYVHLKNLASRPYTFHSHGITYYKEHEGAIYPDNTTDFQRADDKVYPGEQYTYMLLATEEQSPGEGDGNCVTRIYHSHIDAPKDIASGLIGPLIICKKDSLDKEKEKHIDREFVVMFSVVDENFSWYLEDNIKTYCSEPEKVDKDNEDFQESNRMYSVNGYTFGSLPGLSMCAEDRVKWYLFGMGNEVDVHAAFFHGQALTNKNYRIDTINLFPATLFDAYMVAQNPGEWMLSCQNLNHLKAGLQAFFQVQECNKSSSKDNIRGKHVRHYYIAAEEIIWNYAPSGIDIFTKENLTAPGSDSAVFFEQGTTRIGGSYKKLVYREYTDASFTNRKERGPEEEHLGILGPVIWAEVGDTIRVTFHNKGAYPLSIEPIGVRFNKNNEGTYYSPNYNPQSRSVPPSASHVAPTETFTYEWTVPKEVGPTNADPVCLAKMYYSAVEPTKDIFTGLIGPMKICKKGSLHANGRQKDVDKEFYLFPTVFDENESLLLEDNIRMFTTAPDQVDKEDEDFQESNKMHSMNGFMYGNQPGLTMCKGDSVVWYLFSAGNEADVHGIYFSGNTYLWRGERRDTANLFPQTSLTLHMWPDTEGTFNVECLTTDHYTGGMKQKYTVNQCRRQSEDSTFYLGERTYYIAAVEVEWDYSPQREWEKELHHLQEQNVSNAFLDKGEFYIGSKYKKVVYRQYTDSTFRVPVERKAEEEHLGILGPQLHADVGDKVKIIFKNMATRPYSIHAHGVQTESSTVTPTLPGETLTYVWKIPERSGAGTEDSACIPWAYYSTVDQVKDLYSGLIGPLIVCRRPYLKVFNPRRKLEFALLFLVFDENESWYLDDNIKTYSDHPEKVNKDDEEFIESNKMHAINGRMFGNLQGLTMHVGDEVNWYLMGMGNEIDLHTVHFHGHSFQYKHRGVYSSDVFDIFPGTYQTLEMFPRTPGIWLLHCHVTDHIHAGMETTYTVLQNEDTKSG
modifications: N-glycans
serum antibodies against glycan in metastatic breast cancer patients versus healthy individuals (in words) [2]: bind and significantly higher levels
